Experimental data reported in the NIST ThermoML archive (doi:10.1016/j.fluid.2018.05.004).
± gives the expanded uncertainty stated by the source.

Details: Crystal, Transpiration method

[CH]1C=CC=C1.[CH]1C=CC=C1.[Fe] [ferrocene]
Details | vapor or sublimation pressure [kPa]
361.2 K | 0.172 ± 0.021
363.2 K | 0.198 ± 0.025
366.5 K | 0.244 ± 0.031
368.2 K | 0.263 ± 0.034
371.7 K | 0.332 ± 0.042
374.4 K | 0.398 ± 0.05
378.3 K | 0.494 ± 0.063
385.7 K | 0.789 ± 0.098
388.6 K | 0.907 ± 0.11
392.1 K | 1.13 ± 0.14
394 K | 1.23 ± 0.15
401.8 K | 1.881 ± 0.24
410.1 K | 2.869 ± 0.36
417.3 K | 4.29 ± 0.54
419.4 K | 4.338 ± 0.54
429.4 K | 7.204 ± 0.9
430.7 K | 7.571 ± 0.95
434.6 K | 9.559 ± 1.2
435.2 K | 9.195 ± 1.2
